Experiments:
calcium channel = target: T1, calcium channel (Cavia porcellus, UniProt O35505); test: Calcium channel blocking action (calcium-induced contraction of excised taenia coli); settings: 0.5 h, test compound 10^-8 g/ml, 30 minutes incubation, guinea pig taenia coli, hydrochlorides (Example 34: fumarate)
T1 construct: The taenia coli excised from a male guinea pig; from tissue; host or cells: guinea pig taenia coli (excised smooth muscle strip)
Description: The taenia coli excised from a male guinea pig weighing from 250 to 300 g was cut into a length of 6 to 7 mm and suspended in an organ bath filled with Tylord's solution (sodium chloride 97 mM, potassium chloride 40 mM, sodium hydrogen carbonate 11.9 mM, disodium hydrogen phosphate 0.4 mM, glucose 5.5 mM; pH 7.1). The bath solution contained no calcium ions and was aerated with a mixture of 95% oxygen and 5% carbon dioxide by volume. To this solution were added 10 and 30 mM solutions of calcium chloride at 30 minute intervals to obtain a final concentration of 0.4 mM. The tension which developed 1n the taenia coli was measured by an isometric transducer. The organ bath was then washed twice or more with Tylord's solution containing no calcium ions after which it was allowed to equilibrate for 30 minutes. After the muscle had stabilised, test compound dissolved in physiological saline was added to the bath to a final concentration of 10^-8 g/ml, and the bath was incubated for 30 minutes. 30 and 100 mM solutions of calcium chloride were again added to the bath, and the developed tension was measured. From the magnitude of the calcium-induced contraction before and after the test drug had been added the inhibitory rate was calculated using the following formula: [formula] where: Co=contraction induced by calcium ion before a test drug was added: and
Ct=contraction induced by calcium ion after the test drug had been added.
In addition to the compounds of the invention, we also carried out the same test with the following compounds of the prior art: (±)-diltiazem, […], (±)-8-chlorodiltiazem (8-Cl-diltiazem). (±)-8-methoxydiltiazem (8-MeO-diltiazem) and (±)-8-benzyloxydiltiazem (8-BzO-diltiazem).
In the Table, the compounds of the invention are identified by the number of the one of the foregoing Examples in which the compound was prepared. The prior art compounds are identified by the abbreviated generic names shown above in parentheses.
All of the compounds except for that of Example 34 were employed as the hydrochlorides; that of Example 34 was employed as the fumarate.

[1] = test system: SHR (spontaneously hypertensive rats); test: Antihypertensive action in SHR; type: in vivo; settings: Dose 10 mg/kg, conscious male SHR, hydrochlorides, 24 hours; for change in vivo at 10 mg/kg: Rattus norvegicus, po, read-out: Maximum hypotension (%)
Description: Male SHR (spontaneously hypertensive rats), 23 to 30 weeks old, were anesthesized with sodium pentobarbital 50 mg/kg intraperitoneal administration), and a polyethylene cannula was inserted through the left femoral artery into the abdominal aorta. The other end of the cannula was led out of the body and fixed at the back of the neck. One week after the operation, when the animal had recovered from the stress of the surgery, the other end of the cannula was connected to a blood pressure measuring device, which was constructed according to the directions of Laffan et al. [Laffan, P.J., Peterson A., Hitch S,W. and Jeunelot C., Cardiovascular Res. 6. 319-324 (1972)], but with slight modifications. The blood pressure and heart rate of the conscious and […] SHR were measured. After the blood pressure and the heart rate had stabilised for more than one hour, the test drug was administered by […]. After administration of the test sample, the blood pressure and the heart rate were measured every 15 minutes over a period of 24 hours. The maximum decrease in blood pressure and the half-time of the blood pressure lowering activity thus determined are shown in Table 6.
All of the test compounds were employed as the hydrochlorides.

T1 sequence (O35505 whole entry): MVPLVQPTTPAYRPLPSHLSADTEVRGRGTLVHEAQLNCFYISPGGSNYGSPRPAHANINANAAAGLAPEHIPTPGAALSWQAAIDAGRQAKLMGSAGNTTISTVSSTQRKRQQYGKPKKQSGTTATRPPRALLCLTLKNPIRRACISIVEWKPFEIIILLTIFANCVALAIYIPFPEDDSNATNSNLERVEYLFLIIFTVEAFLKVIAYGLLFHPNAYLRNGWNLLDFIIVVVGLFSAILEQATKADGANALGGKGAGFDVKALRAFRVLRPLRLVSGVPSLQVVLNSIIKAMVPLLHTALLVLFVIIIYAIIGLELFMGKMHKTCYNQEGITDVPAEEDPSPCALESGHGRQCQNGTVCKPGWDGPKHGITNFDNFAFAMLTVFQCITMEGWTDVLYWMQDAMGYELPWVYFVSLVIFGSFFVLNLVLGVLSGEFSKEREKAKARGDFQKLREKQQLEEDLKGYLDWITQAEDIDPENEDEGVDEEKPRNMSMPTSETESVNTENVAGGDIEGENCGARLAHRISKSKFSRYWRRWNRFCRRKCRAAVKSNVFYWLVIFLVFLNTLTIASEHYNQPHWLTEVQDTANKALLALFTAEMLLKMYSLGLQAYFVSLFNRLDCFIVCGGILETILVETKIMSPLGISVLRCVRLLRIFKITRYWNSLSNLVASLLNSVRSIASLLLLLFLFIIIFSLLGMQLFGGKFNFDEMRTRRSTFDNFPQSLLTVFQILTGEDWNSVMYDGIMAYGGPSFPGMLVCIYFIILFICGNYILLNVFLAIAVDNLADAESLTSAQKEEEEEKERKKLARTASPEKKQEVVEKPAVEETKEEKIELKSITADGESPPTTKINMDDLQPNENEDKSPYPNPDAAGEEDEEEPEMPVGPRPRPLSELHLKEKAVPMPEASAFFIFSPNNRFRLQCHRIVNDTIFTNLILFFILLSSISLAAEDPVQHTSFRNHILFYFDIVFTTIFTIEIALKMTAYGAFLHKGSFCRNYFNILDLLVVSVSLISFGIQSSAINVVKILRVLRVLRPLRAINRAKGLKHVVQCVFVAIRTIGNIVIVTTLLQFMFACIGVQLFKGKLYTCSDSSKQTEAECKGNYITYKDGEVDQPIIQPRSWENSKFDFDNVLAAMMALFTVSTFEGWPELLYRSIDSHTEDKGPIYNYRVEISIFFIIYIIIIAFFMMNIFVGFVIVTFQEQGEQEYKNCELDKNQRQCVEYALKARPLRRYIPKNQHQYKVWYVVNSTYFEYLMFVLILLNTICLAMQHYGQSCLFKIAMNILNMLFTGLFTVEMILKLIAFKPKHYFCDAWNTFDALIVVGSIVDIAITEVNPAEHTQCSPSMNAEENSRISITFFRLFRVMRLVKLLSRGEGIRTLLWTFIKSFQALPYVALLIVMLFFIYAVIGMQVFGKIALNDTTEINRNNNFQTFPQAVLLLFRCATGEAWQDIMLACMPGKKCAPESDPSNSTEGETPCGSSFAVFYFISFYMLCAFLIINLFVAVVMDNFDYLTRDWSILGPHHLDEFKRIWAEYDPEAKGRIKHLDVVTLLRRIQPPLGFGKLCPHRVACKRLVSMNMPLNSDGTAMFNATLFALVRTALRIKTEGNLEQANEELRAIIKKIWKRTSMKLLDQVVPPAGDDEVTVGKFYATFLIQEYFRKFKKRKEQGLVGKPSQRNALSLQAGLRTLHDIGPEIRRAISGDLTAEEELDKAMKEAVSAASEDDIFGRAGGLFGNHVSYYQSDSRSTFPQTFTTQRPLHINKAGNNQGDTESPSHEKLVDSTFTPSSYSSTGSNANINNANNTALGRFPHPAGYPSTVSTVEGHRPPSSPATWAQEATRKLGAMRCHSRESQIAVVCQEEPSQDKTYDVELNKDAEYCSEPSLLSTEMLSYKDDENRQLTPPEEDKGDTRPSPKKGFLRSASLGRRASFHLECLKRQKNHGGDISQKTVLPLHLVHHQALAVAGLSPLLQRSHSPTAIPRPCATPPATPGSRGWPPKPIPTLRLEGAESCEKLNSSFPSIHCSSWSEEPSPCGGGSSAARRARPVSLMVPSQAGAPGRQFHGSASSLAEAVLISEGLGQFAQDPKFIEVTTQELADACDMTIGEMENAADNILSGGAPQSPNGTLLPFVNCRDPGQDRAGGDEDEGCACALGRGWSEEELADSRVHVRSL

| Compound | inhibition at 0.01 µg/mL (calcium channel) | Half-time of hypotension action [1] | change in vivo at 10 mg/kg [1] |
| --- | --- | --- | --- |
| COc1ccc([C@@H]2Sc3cc(Oc4ccc(F)cc4)ccc3N(CCN(C)C)C(=O)[C@@H]2OC(C)=O)cc1F [Example 32, (2S, 3S)-3-Acetoxy-5-(2-dimethylaminoethyl)-2-(3-fluoro-4-methoxyphenyl)-8-(4-fluorophenoxy)-2,3-dihydro-1,5-benzothiazepin-4(5H)-one] | 100% | 13.8 h | -41% |
| CCN(CC)CCN1C(=O)[C@H](OC(C)=O)[C@H](c2ccc(OC)cc2)Sc2cc(Oc3ccccc3)ccc21 [Example 36, (2S, 3S)-3-Acetoxy-5-(2-diethylaminoethyl)-2,3-dihydro-2-(4-methoxyphenyl)-8-phenoxy-1,5-benzothiazepin-4(5H)-one] | 80% | 8.2 h | -29% |
| COc1ccc([C@@H]2Sc3cc(Cc4ccc(F)cc4)ccc3N(CCN(C)C)C(=O)[C@@H]2OC(C)=O)cc1 [Example 38, (2S, 3S)-3-Acetoxy-5-(2-dimethylaminoethyl)-8-(4-fluoro-benzyl)-2,3-dihydro-2-(4-methoxyphenyl)-1,5-benzothiazepin-4(5H)-one] | 69% | 11.8 h | -32% |
